Measured values taken from ChEMBL document CHEMBL1201862, “PubChem BioAssay data set” (2004).
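Where inhibition never reached the appropriate level, the endpoint shown equals the highest concentration tested. Otherwise, values were interpolated linearly from a five-concentration, 48-hour dose response in 96-well plates. GI50: concentration for 50% inhibition of growth.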 The source made the active and inactive calls. Cut-off read from the data, not from the text of the source: active = GI50 up to about 1.1 µM and inactive = higher.

What was measured:
Assay in all cases: inhibition of tumour cell growth, NCI panel, 48 h
SK-MEL-5 = tested on: SK-MEL-5
T47D = tested on: T47D
CAKI-1 = tested on: CAKI-1
OVCAR-8 = tested on: OVCAR-8
NCI/ADR-RES = tested on: NCI/ADR-RES
MDA-MB-231 = tested on: MDA-MB-231
UACC-62 = tested on: UACC-62
HOP-62 = tested on: HOP-62
M14 = tested on: M14
A498 = tested on: A498
786-0 = tested on: 786-0
SNB-19 = tested on: SNB-19
OVCAR-3 = tested on: OVCAR-3
NCI-H522 = tested on: NCI-H522
RPMI-8226 = tested on: RPMI-8226
TK-10 = tested on: TK-10
SNB-75 = tested on: SNB-75
NCI-H23 = tested on: NCI-H23
SF-539 = tested on: SF-539

Measured: GI50

Nc1nc(SCc2ccccc2Cl)cc(C(=O)O)n1
inactive: SK-MEL-5 76.9 µM | T47D > 100 µM | CAKI-1 > 100 µM | OVCAR-8 46.9 µM | NCI/ADR-RES 33.4 µM | MDA-MB-231 > 100 µM | UACC-62 > 100 µM | HOP-62 63.1 µM | M14 > 100 µM | A498 > 100 µM | 786-0 79.1 µM | SNB-19 > 100 µM | OVCAR-3 28.6 µM | NCI-H522 30.9 µM | RPMI-8226 54.1 µM | TK-10 > 100 µM | SNB-75 > 100 µM | NCI-H23 57.4 µM

Oc1nc(S)nc2c1CN(CCCN1CCOCC1)CN2
inactive: SK-MEL-5 31 µM | T47D 35.4 µM | CAKI-1 30.4 µM | OVCAR-8 31 µM | NCI/ADR-RES 37.8 µM | SF-539 25.5 µM | MDA-MB-231 26.7 µM | UACC-62 19.7 µM | HOP-62 30.9 µM | M14 25.5 µM | A498 > 100 µM | 786-0 40.4 µM | SNB-19 > 100 µM | OVCAR-3 38.5 µM | NCI-H522 21.2 µM | RPMI-8226 26.9 µM | TK-10 56.6 µM | NCI-H23 22.4 µM

O=c1[nH]nc(-c2ccccc2)n1-n1cccc1
inactive: SK-MEL-5 > 100 µM | T47D > 100 µM | CAKI-1 > 100 µM | OVCAR-8 > 100 µM | NCI/ADR-RES > 100 µM | MDA-MB-231 > 100 µM | UACC-62 > 100 µM | HOP-62 > 100 µM | M14 > 100 µM | A498 > 100 µM | 786-0 > 100 µM | SNB-19 > 100 µM | OVCAR-3 > 100 µM | NCI-H522 > 100 µM | RPMI-8226 > 100 µM | TK-10 > 100 µM | SNB-75 > 100 µM

CN(C1=NCCO1)c1cccc2c1CCCC2
inactive: SK-MEL-5 2.11 µM | T47D 8.85 µM | CAKI-1 3.6 µM | OVCAR-8 5.3 µM | NCI/ADR-RES 3.6 µM | SF-539 3.25 µM | MDA-MB-231 1.73 µM | UACC-62 3.37 µM | HOP-62 7.08 µM | M14 2.23 µM | A498 3.71 µM | 786-0 3.17 µM | SNB-19 8.04 µM | NCI-H522 4.16 µM | RPMI-8226 5.93 µM | TK-10 3.23 µM | NCI-H23 3.73 µM

COc1ccc2cc(C(=O)O)ccc2c1OC
inactive: SK-MEL-5 > 100 µM | T47D > 100 µM | CAKI-1 > 100 µM | OVCAR-8 > 100 µM | NCI/ADR-RES > 100 µM | SF-539 > 100 µM | MDA-MB-231 > 100 µM | UACC-62 > 100 µM | HOP-62 > 100 µM | M14 > 100 µM | A498 > 100 µM | 786-0 > 100 µM | SNB-19 > 100 µM | OVCAR-3 > 100 µM | NCI-H522 > 100 µM | SNB-75 43 µM | NCI-H23 > 100 µM

Nc1c(C(=O)O)c2ccc([N+](=O)[O-])cc2c(=O)n1-c1nc2ccccc2s1
inactive: SK-MEL-5 > 100 µM | T47D > 100 µM | CAKI-1 > 100 µM | OVCAR-8 > 100 µM | NCI/ADR-RES > 100 µM | MDA-MB-231 > 100 µM | UACC-62 > 100 µM | HOP-62 > 100 µM | M14 > 100 µM | A498 > 100 µM | 786-0 > 100 µM | SNB-19 > 100 µM | OVCAR-3 > 100 µM | NCI-H522 > 100 µM | RPMI-8226 > 100 µM | SNB-75 > 100 µM | NCI-H23 > 100 µM

CCOC(=O)c1sc2nc(SC)nc3c2c1NCN3c1ccc(F)c(F)c1
inactive: SK-MEL-5 > 71.9 µM | T47D 29.4 µM | CAKI-1 > 52.5 µM | OVCAR-8 5.27 µM | NCI/ADR-RES 9.98 µM | SF-539 5.2 µM | MDA-MB-231 13 µM | UACC-62 > 52.4 µM | HOP-62 12.1 µM | M14 31.4 µM | A498 12.6 µM | 786-0 4.82 µM | SNB-19 34.8 µM | OVCAR-3 5.57 µM | NCI-H522 21.1 µM | RPMI-8226 9.93 µM | TK-10 22.6 µM | NCI-H23 14.6 µM

CC1=NN=C(N)NC1=CC(Sc1ccc(Cl)cc1)c1c(O)ccc2ccccc12 (configuration not stated)
inactive: SK-MEL-5 8.07 µM | T47D 8.51 µM | CAKI-1 23.7 µM | OVCAR-8 16.7 µM | NCI/ADR-RES 20.2 µM | MDA-MB-231 21.1 µM | UACC-62 9.35 µM | HOP-62 20.2 µM | M14 11.9 µM | A498 18.7 µM | 786-0 25.5 µM | SNB-19 20.6 µM | NCI-H522 15.5 µM | RPMI-8226 13.5 µM | TK-10 26.5 µM | SNB-75 18.6 µM | NCI-H23 15.1 µM

CCCCCCCCCCCCCC/C(C(=O)O)=C(\C)C(=O)O
inactive: SK-MEL-5 > 100 µM | T47D > 100 µM | OVCAR-8 > 100 µM | NCI/ADR-RES 97.7 µM | SF-539 > 100 µM | MDA-MB-231 > 100 µM | UACC-62 > 100 µM | HOP-62 > 100 µM | M14 > 100 µM | A498 > 100 µM | 786-0 > 100 µM | SNB-19 > 100 µM | OVCAR-3 > 100 µM | NCI-H522 > 100 µM | RPMI-8226 40.4 µM | TK-10 > 100 µM | SNB-75 > 100 µM | NCI-H23 > 100 µM

O=C1Cc2c([nH]c3ccc(Br)cc23)-c2cc(O)c(O)cc2N1
inactive: T47D > 100 µM | CAKI-1 > 100 µM | OVCAR-8 > 100 µM | NCI/ADR-RES > 100 µM | MDA-MB-231 > 100 µM | UACC-62 > 100 µM | HOP-62 > 100 µM | M14 > 100 µM | A498 > 100 µM | 786-0 > 100 µM | SNB-19 > 100 µM | OVCAR-3 > 100 µM | NCI-H522 > 100 µM | RPMI-8226 > 100 µM | TK-10 > 100 µM | SNB-75 > 100 µM | NCI-H23 > 100 µM

O=C(NC1CCN(Cc2ccccc2)CC1)c1cccc(I)c1
inactive: SK-MEL-5 16.9 µM | T47D 24.1 µM | CAKI-1 19.7 µM | OVCAR-8 39.2 µM | NCI/ADR-RES 31.8 µM | SF-539 22.8 µM | MDA-MB-231 17 µM | UACC-62 20.5 µM | HOP-62 15.8 µM | M14 17.2 µM | A498 46.6 µM | 786-0 25.4 µM | SNB-19 35 µM | OVCAR-3 40 µM | NCI-H522 17.8 µM | RPMI-8226 12.5 µM | TK-10 22.8 µM | NCI-H23 24 µM
